Measured values: PMC7181660, “A novel specific PERK activator reduces toxicity and extends survival in Huntington's disease models” (Scientific Reports, 2020)
Where two headings read alike, the source gives them in different places.

Assays:
Assay in all cases: biochemical
Type in all cases: biochemical
panel of 391 kinases [1] = molecular target: panel of 391 kinases (Homo sapiens, UniProt O60285); details: ARK5/NUAK1, MK-28 1 µM, ATP 1 µM
panel of 391 kinases [2] = molecular target: panel of 391 kinases (Homo sapiens, UniProt P06493); details: MK-28 1 µM, ATP 1 µM; for remaining activity at 1 µM: read-out: % Enzyme Activity (relative to DMSO controls)
panel of 391 kinases [3] = molecular target: panel of 391 kinases (Homo sapiens, UniProt P21709); details: EPHA1, MK-28 1 µM, ATP 1 µM
panel of 391 kinases [4] = molecular target: panel of 391 kinases (Homo sapiens, UniProt P22455); details: FGFR4, MK-28 1 µM, ATP 1 µM
panel of 391 kinases [5] = molecular target: panel of 391 kinases (Homo sapiens, UniProt P35626); details: GRK3, MK-28 1 µM, ATP 1 µM
panel of 391 kinases [6] = molecular target: panel of 391 kinases (Homo sapiens, UniProt P35916); details: FLT4/VEGFR3, MK-28 1 µM, ATP 1 µM
panel of 391 kinases [7] = molecular target: panel of 391 kinases (Homo sapiens, UniProt P37173); details: TGFBR2, MK-28 1 µM, ATP 1 µM
panel of 391 kinases [8] = molecular target: panel of 391 kinases (Homo sapiens, UniProt P51617); details: IRAK1, MK-28 1 µM, ATP 1 µM
panel of 391 kinases [9] = molecular target: panel of 391 kinases (Homo sapiens, UniProt P53667); details: LIMK1, MK-28 1 µM, ATP 1 µM
panel of 391 kinases [10] = molecular target: panel of 391 kinases (Homo sapiens, UniProt P53778); details: P38g, MK-28 1 µM, ATP 1 µM
panel of 391 kinases [11] = molecular target: panel of 391 kinases (Homo sapiens, UniProt P80192); details: MLK1/MAP3K9, MK-28 1 µM, ATP 1 µM
panel of 391 kinases [12] = molecular target: panel of 391 kinases (Homo sapiens, UniProt Q07002); details: CDK18/cyclin Y (PCTK3), MK-28 1 µM, ATP 1 µM
panel of 391 kinases [13] = molecular target: panel of 391 kinases (Homo sapiens, UniProt Q16513); details: PKN2/PRK2, MK-28 1 µM, ATP 1 µM
panel of 391 kinases [14] = molecular target: panel of 391 kinases (Homo sapiens, UniProt Q16566); details: CAMK4, MK-28 1 µM, ATP 1 µM
panel of 391 kinases [15] = molecular target: panel of 391 kinases (Homo sapiens, UniProt Q16832); details: DDR2, MK-28 1 µM, ATP 1 µM
panel of 391 kinases [16] = molecular target: panel of 391 kinases (Homo sapiens, UniProt Q56UN5); details: YSK4/MAP3K19, MK-28 1 µM, ATP 1 µM
panel of 391 kinases [17] = molecular target: panel of 391 kinases (Homo sapiens, UniProt Q8TD08); details: ERK7/MAPK15, MK-28 1 µM, ATP 1 µM
panel of 391 kinases [18] = molecular target: panel of 391 kinases (Homo sapiens, UniProt Q96L34); details: MARK4, MK-28 1 µM, ATP 1 µM
panel of 391 kinases [19] = molecular target: panel of 391 kinases (Homo sapiens, UniProt Q99986); details: VRK1, MK-28 1 µM, ATP 1 µM
panel of 391 kinases [20] = molecular target: panel of 391 kinases (Homo sapiens, UniProt Q9BYP7); details: WNK3, MK-28 1 µM, ATP 1 µM
panel of 391 kinases [21] = molecular target: panel of 391 kinases (Homo sapiens, UniProt Q9H3Y6); details: SRMS, MK-28 1 µM, ATP 1 µM
panel of 391 kinases [22] = molecular target: panel of 391 kinases (Homo sapiens, UniProt Q9HC98); details: NEK6, MK-28 1 µM, ATP 1 µM
panel of 391 kinases [23] = molecular target: panel of 391 kinases (Homo sapiens, UniProt Q9NYL2); details: ZAK/MLTK, MK-28 1 µM, ATP 1 µM
panel of 391 kinases [24] = molecular target: panel of 391 kinases (Homo sapiens, UniProt Q9P286); details: PAK5, MK-28 1 µM, ATP 1 µM
panel of 391 kinases [25] = molecular target: panel of 391 kinases (Homo sapiens, UniProt Q9UK32); details: RSK4, MK-28 1 µM, ATP 1 µM
panel of 391 kinases [26] = molecular target: panel of 391 kinases (Homo sapiens, UniProt Q9Y2H1); details: STK38L/NDR2, MK-28 1 µM, ATP 1 µM
[27] = read-out: % Enzyme Activity (relative to DMSO controls)

With CN(/N=C\c1ccc(O)c(O)c1)c1nc(-c2ccccc2)cc(-c2ccccc2)n1 [MK-28] the “% Enzyme Activity (relative to DMSO controls)” value (panel of 391 kinases [1]) was 91.19%, the remaining activity at 1 µM (panel of 391 kinases [1]; [27]) was 93.8% and the “% Enzyme Activity (relative to DMSO controls)” value (panel of 391 kinases [2]; CDK1/cyclin A) was 104.81%. For the same compound, the remaining activity at 1 µM (panel of 391 kinases [2]; CDK1/cyclin A) was 105%, the “% Enzyme Activity (relative to DMSO controls)” value (panel of 391 kinases [2]; CDK1/cyclin B) was 94.54% and the remaining activity at 1 µM (panel of 391 kinases [2]; CDK1/cyclin B) was 95%. For the same compound, the “% Enzyme Activity (relative to DMSO controls)” value (panel of 391 kinases [2]; CDK1/cyclin E) was 97.74%, the remaining activity at 1 µM (panel of 391 kinases [2]; CDK1/cyclin E) was 97.8% and the “% Enzyme Activity (relative to DMSO controls)” value (panel of 391 kinases [3]) was 99.87%. For the same compound, the remaining activity at 1 µM (panel of 391 kinases [3]; [27]) was 102%, the “% Enzyme Activity (relative to DMSO controls)” value (panel of 391 kinases [4]) was 100.59% and the remaining activity at 1 µM (panel of 391 kinases [4]; [27]) was 105%. For the same compound, the “% Enzyme Activity (relative to DMSO controls)” value (panel of 391 kinases [5]) was 99.99%, the remaining activity at 1 µM (panel of 391 kinases [5]; [27]) was 102% and the “% Enzyme Activity (relative to DMSO controls)” value (panel of 391 kinases [6]) was 92.88%. The remaining activity at 1 µM (panel of 391 kinases [6]; [27]) was 94.1%, the “% Enzyme Activity (relative to DMSO controls)” value (panel of 391 kinases [7]) was 94.50% and the remaining activity at 1 µM (panel of 391 kinases [7]; [27]) was 102%. The “% Enzyme Activity (relative to DMSO controls)” value (panel of 391 kinases [8]) was 84.75%, the remaining activity at 1 µM (panel of 391 kinases [8]; [27]) was 88.3% and the “% Enzyme Activity (relative to DMSO controls)” value (panel of 391 kinases [9]) was 93.55%. For the same compound, the remaining activity at 1 µM (panel of 391 kinases [9]; [27]) was 101%, the “% Enzyme Activity (relative to DMSO controls)” value (panel of 391 kinases [10]) was 100.96% and the remaining activity at 1 µM (panel of 391 kinases [10]; [27]) was 107%. The “% Enzyme Activity (relative to DMSO controls)” value (panel of 391 kinases [11]) was 91.08%, the remaining activity at 1 µM (panel of 391 kinases [11]; [27]) was 91.3% and the “% Enzyme Activity (relative to DMSO controls)” value (panel of 391 kinases [12]) was 109.27%. The remaining activity at 1 µM (panel of 391 kinases [12]; [27]) was 111%, the “% Enzyme Activity (relative to DMSO controls)” value (panel of 391 kinases [13]) was 111.91% and the remaining activity at 1 µM (panel of 391 kinases [13]; [27]) was 115%. For the same compound, the “% Enzyme Activity (relative to DMSO controls)” value (panel of 391 kinases [14]) was 99.67%, the remaining activity at 1 µM (panel of 391 kinases [14]; [27]) was 101% and the “% Enzyme Activity (relative to DMSO controls)” value (panel of 391 kinases [15]) was 95.21%. For the same compound, the remaining activity at 1 µM (panel of 391 kinases [15]; [27]) was 97.4%, the “% Enzyme Activity (relative to DMSO controls)” value (panel of 391 kinases [16]) was 104.21% and the remaining activity at 1 µM (panel of 391 kinases [16]; [27]) was 106%. The “% Enzyme Activity (relative to DMSO controls)” value (panel of 391 kinases [17]) was 103.38%, the remaining activity at 1 µM (panel of 391 kinases [17]; [27]) was 105% and the “% Enzyme Activity (relative to DMSO controls)” value (panel of 391 kinases [18]) was 96.24%. The remaining activity at 1 µM (panel of 391 kinases [18]; [27]) was 99.8%, the “% Enzyme Activity (relative to DMSO controls)” value (panel of 391 kinases [19]) was 104.86% and the remaining activity at 1 µM (panel of 391 kinases [19]; [27]) was 106%. The “% Enzyme Activity (relative to DMSO controls)” value (panel of 391 kinases [20]) was 104.23%, the remaining activity at 1 µM (panel of 391 kinases [20]; [27]) was 105% and the “% Enzyme Activity (relative to DMSO controls)” value (panel of 391 kinases [21]) was 102.96%. The remaining activity at 1 µM (panel of 391 kinases [21]; [27]) was 104%, the “% Enzyme Activity (relative to DMSO controls)” value (panel of 391 kinases [22]) was 99.56% and the remaining activity at 1 µM (panel of 391 kinases [22]; [27]) was 100%. For the same compound, the “% Enzyme Activity (relative to DMSO controls)” value (panel of 391 kinases [23]) was 104.97%, the remaining activity at 1 µM (panel of 391 kinases [23]; [27]) was 105% and the “% Enzyme Activity (relative to DMSO controls)” value (panel of 391 kinases [24]) was 72.57%. For the same compound, the remaining activity at 1 µM (panel of 391 kinases [24]; [27]) was 77.2%, the “% Enzyme Activity (relative to DMSO controls)” value (panel of 391 kinases [25]) was 101.39% and the remaining activity at 1 µM (panel of 391 kinases [25]; [27]) was 102%. For the same compound, the “% Enzyme Activity (relative to DMSO controls)” value (panel of 391 kinases [26]) was 94.10% and the remaining activity at 1 µM (panel of 391 kinases [26]; [27]) was 96%.
